Where a SMILES comes first, the peptide text is derived from it. [ ]: non-standard residue; d: D form. The star is where a group is joined. DOTA = O=C(O)CN1CCN(CC(=O)O)CCN(CC(=O)*)CCN(CC(=O)O)CC1; Ahx = NCCCCCC(=O)O
What was measured:
[1] = tested on: 4T1 tumor-bearing BALB/c mice; format: in vivo
Protocol: (§1) Female BALB/c mice of 4–5 weeks were purchased from Beijing Biotechnology Co., Ltd. (Beijing, China). The 4T1 murine cancer model was established by the injection of 3 × 10^5 cells/150 μl into the front right limbs of female BALB/c mice. Experiments started when the tumors reached a volume of approximately 250–350 mm^3.
Female BALB/c tumor-bearing mice with subcutaneous 4T1 xenografts were randomly divided into 2 groups (n = 9 for the experimental group, and n = 3 for the blocking group), and then were injected with 3.70 MBq of ^68Ga-DOTA-^DTBP-3 via the tail vein. At different time points (0.5, 1 and 2 h post-injection for the experimental group, 0.5 h post-injection for the blocking group), the mice were euthanized, and the tumor, main organs (muscle, bone, large intestine, small intestine, stomach, kidney, spleen, liver, lung, heart, brain) and blood were weighed and counted by a γ counter. The results are expressed as percentage injected dose per gram of tissue (% ID/g), and the values were calculated based on signal decay correction and normalization to external ^68Ga standards.

[2] = tested on: 4T1 tumor-bearing BALB/c mice; format: in vivo; remark: listed apart in the source
Protocol: as §1
PET images were acquired on a micro-PET scanner (InliView-3000B, Minfound, Hangzhou, China). Mice bearing subcutaneous tumors were anesthetized with isoflurane (1.0–1.5%) and then were injected with about 5.55 MBq of ^68Ga-DOTA-^DTBP-3 via the tail vein. In the blocking group, tumor-bearing BALB/c were pretreated with the 40-fold excess of ^DTBP-3 for 0.5 h, and then injected equal dose of radiotracer with the above groups. Static imaging (15 min) was collected at different time points (0.5, 1 and 2 h post-injection).

A375 cells = assay: cell uptake experiment, A375 cells; format: cell-based, human; conditions: A375 cells (low TIGIT expression), at 0.5 h; time points 15, 30, 60, 120 min; γ-count
Protocol: (§2) For cell uptake experiments, 4T1 and A375 cells were incubated with ^68Ga-DOTA-^DTBP-3 at different time points (15, 30, 60 and 120 min), respectively. Then, the cells were washed 3 times with cold PBS, and 0.1 M NaOH solution was used to lyse the cells and collected for γ-count.

4T1 cells = assay: cell uptake experiment, 4T1 cells; format: cell-based, murine
Protocol: as §2

## CC(C)C[C@@H](NC(=O)[C@@H](CCCNC(=N)N)NC(=O)[C@@H](Cc1c[nH]cn1)NC(=O)[C@@H](Cc1c[nH]c2ccccc12)NC(=O)[C@@H](Cc1c[nH]cn1)NC(=O)[C@@H](Cc1ccccc1)NC(=O)[C@H](NC(=O)[C@@H](Cc1ccc(O)cc1)NC(=O)CNC(=O)CNC(=O)CCCCCNC(=O)CN1CCN(CC(=O)O)CCN(CC(=O)O)CCN(CC(=O)O)CC1)[C@H](C)O)C(=O)N[C@H](CC(N)=O)C(=O)N1CCC[C@@H]1C(=O)O [^68Ga-DOTA-^DTBP-3, metal not drawn] ({DOTA-Ahx}-GG[dY][dT][dF][dH][dW][dH][dR][dL][dN][dP]-OH; N-terminus and C-terminus assumed)
[1]; 0.5 h post-injection
  tumor-to-blood ratio (biodistribution): high
  tumor-to-muscle ratio (biodistribution): high
[1]; mouse, in vivo
  clearance from the blood: quickly cleared
[2]; 4T1 tumor, 0.5 h after intravenous injection, about 5.55 MBq, n = 3
  tumor uptake on micro-PET: 3.49 ± 0.14
[2]; 4T1 tumor-bearing mice pretreated with 40-fold excess unlabeled ^DTBP-3 for 0.5 h
  tumor uptake on micro-PET, blocking group: no obvious uptake
[2]; mouse, in vivo
  time of peak uptake of tumor tissue: about 0.5 h
A375 cells
  cell uptake of radiotracer (highest): 2.56 ± 0.19%
4T1 cells; 4T1 cells (high TIGIT expression), at 0.5 h, time points 15, 30, 60, 120 min, γ-count
  cell uptake of radiotracer (highest): 8.41 ± 1.22%
4T1 cells; 4T1 cells, excess unlabeled ^DTBP-3
  4T1 cellular uptake with excess unlabeled ^DTBP-3 (blocking): could be blocked

From article PMC10154443, “Peptide-based PET imaging agent of tumor TIGIT expression” (EJNMMI Research, 2023)
